In patent US10919785B2, “Hydraulic conveyor of floating objects provided with a device for sanitising conveying composition, plant provided with such a conveyor and sanitising method” (MAF AGROBOTIC, priority 2016, dated 2021):

Test: Example 5: pilot device, degradation of four pesticides (FIG. 6)
Type: physicochemical
Settings: initial boscalid 250, thiacloprid 100, fludioxonil 100, pyraclostrobin 125 μg/l; initial hydrogen peroxide 2 μg/l; 6 m^3/h, five lamps on
Excerpt: A semi-industrial pilot device in accordance with one aspect of the invention comprises a tank for recirculating water to be treated of a volume of 1000 l, a circulation pump ensuring a circulation flow of the water to be treated in a sanitising device with a flow rate between 4 m^3 to 8 m^3/h. The sanitising device comprises a photolysis chamber comprising an inlet for water from the recirculation tank and an outlet for sanitised water directed to the recirculation tank. The photolysis chamber is formed of a rigid tubular envelope, of which the external wall is opaque to light and forming an inner space suitable for receiving five fluorescent tubes with a longitudinal axis extending in parallel with the longitudinal axis of the rigid tubular envelope. The inner volume of the decontamination reactor is in the order of […].
The five fluorescent tubes are tubes of 200 W emitting light at a wavelength of 254 nm and arranged longitudinally in the tubular envelope at the five points of a regular pentagon and in contact with the water to be treated flowing in the photolysis chamber. In this configuration of the sanitising device, the water to be sanitised flowing in contact with the five fluorescent tubes is subjected to substantially homogeneous illumination in the order of 500 mJ/cm^2 for a circulation flow rate of water to be sanitised in the order of 6 m^3/h. The semi-industrial pilot device also comprises a tank for storing an aqueous solution of hydrogen peroxide (H2O2) provided with a pump for distributing said solution in the circulation flow of water to be sanitised issuing into the circuit of water to be sanitised upstream of and in proximity to the photolysis chamber. The concentration of the hydrogen peroxide in the aqueous solution of hydrogen peroxide is between 2 m g/l and 13 mg/l. The set-point flow rate of the pump for distributing solution of H2O2 is kept at 4 l/h.
A study was carried out in a semi-industrial pilot device as described above on the degradation of boscalid, thiacloprid, fludioxonil and pyraclostrobin. […]
For `COC(=O)N(OC)c1ccccc1COc1ccn(-c2ccc(Cl)cc2)n1` [pyraclostrobin], the “degraded within 1 hour” value was 85%.
In the case of `N#C/N=C1\SCCN1Cc1ccc(Cl)nc1` [thiacloprid], the “degraded within 1 hour” value is reported as “more than 95%”.
In the case of `N#Cc1c[nH]cc1-c1cccc2c1OC(F)(F)O2` [fludioxonil], the “degraded within 1 hour” value is reported as 90%.
